Data from patent US4684664A, “Derivatives of β-(4-isocyano-1,2,3,4-diepoxycyclopentyl) acrylic acid” (Kureha Kagaku Kogyo Kabushiki Kaisha, priority 1984, dated 1987).
≈ marks a conversion by molar mass, not a printed value.

Tests used:
Type in all cases: cell-based
[1] = system: Staphylococcus aureus FDA 209PJc-1; assay: Antibacterial activity, agar-dilution MIC, organism No. 1; details: Staphylococcus aureus, FDA209PJC1; Organism No. 1, bouillon-agar; read-out: Minimum Inhibitory Concentration
How it was run: (§1)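 Endpoint: MIC in μg/ml of culture medium. Method: agar dilution. Medium: bouillon agar.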

[2] = system: Staphylococcus aureus Terajima; assay: Antibacterial activity, agar-dilution MIC, organism No. 2; details: Staphylococcus aureus; Organism No. 2, bouillon-agar; read-out: Minimum Inhibitory Concentration
How it was run: as §1

[3] = system: Staphylococcus aureus MS 353; assay: Antibacterial activity, agar-dilution MIC, organism No. 3; details: Staphylococcus aureus, MS353; Organism No. 3, bouillon-agar; read-out: Minimum Inhibitory Concentration
How it was run: as §1

[4] = system: Streptococcus pyogenes Cook; assay: Antibacterial activity, agar-dilution MIC, organism No. 4; details: Streptococcus pyogenes; Organism No. 4, bouillon-agar; read-out: Minimum Inhibitory Concentration
How it was run: as §1

[5] = system: Escherichia coli NIHJ-JC-2; assay: Antibacterial activity, agar-dilution MIC, organism No. 5; details: Escherichia coli, NIHJJC2; Organism No. 5, bouillon-agar; read-out: Minimum Inhibitory Concentration
How it was run: as §1

[6] = system: Escherichia coli K12 C600 IAM 1264; assay: Antibacterial activity, agar-dilution MIC, organism No. 6; details: Escherichia coli, IAM1264; Organism No. 6, bouillon-agar; read-out: Minimum Inhibitory Concentration
How it was run: as §1

[7] = system: Klebsiella pneumoniae PCI-602; assay: Antibacterial activity, agar-dilution MIC, organism No. 7; details: Klebsiella pneumoniae, PCI602; Organism No. 7, bouillon-agar; read-out: Minimum Inhibitory Concentration
How it was run: as §1

[8] = system: Salmonella typhimurium IID 971; assay: Antibacterial activity, agar-dilution MIC, organism No. 8; details: Salmonella enterica; Organism No. 8, bouillon-agar; read-out: Minimum Inhibitory Concentration
How it was run: as §1

Salmonella typhi 901 = assay: Antibacterial activity, agar-dilution MIC, organism No. 9; details: Salmonella enterica, TYPHI, read-out: Minimum Inhibitory Concentration
How it was run: as §1

[9] = system: Salmonella paratyphi-A 1015; assay: Antibacterial activity, agar-dilution MIC, organism No. 10; details: Salmonella enterica, PARATYPHI, read-out: Minimum Inhibitory Concentration
How it was run: as §1

[10] = system: Salmonella shottmuelleri 8006; assay: Antibacterial activity, agar-dilution MIC, organism No. 11; details: Salmonella, 8006; Organism No. 11, bouillon-agar; read-out: Minimum Inhibitory Concentration
How it was run: as §1

[11] = system: Salmonella enteritidis G 14; assay: Antibacterial activity, agar-dilution MIC, organism No. 12; details: Salmonella enterica, ENTERITIDIS; Organism No. 12, bouillon-agar; read-out: Minimum Inhibitory Concentration
How it was run: as §1

[12] = system: Serratia marcescens IAM 1184; assay: Antibacterial activity, agar-dilution MIC, organism No. 13; details: Serratia marcescens, IAM1184; Organism No. 13, bouillon-agar; read-out: Minimum Inhibitory Concentration
How it was run: as §1

[13] = system: Bacillus subtilis ATCC 6633; assay: Antibacterial activity, agar-dilution MIC, organism No. 14; details: Bacillus subtilis, ATCC6633; Organism No. 14, bouillon-agar; read-out: Minimum Inhibitory Concentration
How it was run: as §1

[14] = system: Pseudomonas aeruginosa IFO 3445; assay: Antibacterial activity, agar-dilution MIC, organism No. 15; details: Pseudomonas aeruginosa, IFO3445; Organism No. 15, bouillon-agar; read-out: Minimum Inhibitory Concentration
How it was run: as §1

[15] = system: Pseudomonas aeruginosa NCTC 10490; assay: Antibacterial activity, agar-dilution MIC, organism No. 16; details: Pseudomonas aeruginosa, NCTC10490; Organism No. 16, bouillon-agar; read-out: Minimum Inhibitory Concentration
How it was run: as §1

[16] = system: Pseudomonas aeruginosa PAO 1; assay: Antibacterial activity, agar-dilution MIC, organism No. 17; details: Pseudomonas aeruginosa, PAO1; Organism No. 17, bouillon-agar; read-out: Minimum Inhibitory Concentration
How it was run: as §1

[17] = system: Proteus morganii IFO 3848; assay: Antibacterial activity, agar-dilution MIC, organism No. 18; details: Morganella morganii, IFO3848; Organism No. 18, bouillon-agar; read-out: Minimum Inhibitory Concentration
How it was run: as §1

[18] = system: Proteus mirabilis IFO 3849; assay: Antibacterial activity, agar-dilution MIC, organism No. 19; details: Proteus mirabilis, IFO3849; Organism No. 19, bouillon-agar; read-out: Minimum Inhibitory Concentration
How it was run: as §1

Proteus vulgaris OX-19 = assay: Antibacterial activity, agar-dilution MIC, organism No. 20; details: Proteus vulgaris, OX19; Organism No. 20, bouillon-agar; read-out: Minimum Inhibitory Concentration
How it was run: as §1

Proteus vulgaris HX-19 = assay: Antibacterial activity, agar-dilution MIC, organism No. 21; details: Proteus vulgaris, HX19; Organism No. 21, bouillon-agar; read-out: Minimum Inhibitory Concentration
How it was run: as §1

[19] = system: Proteus rettgeri IFO 3850; assay: Antibacterial activity, agar-dilution MIC, organism No. 22; details: Providencia rettgeri, IFO3850; Organism No. 22, bouillon-agar; read-out: Minimum Inhibitory Concentration
How it was run: as §1

[20] = system: Enterobacter aerogenes ATCC 13048; assay: Antibacterial activity, agar-dilution MIC, organism No. 23; details: Klebsiella aerogenes, ATCC13048; Organism No. 23, bouillon-agar; read-out: Minimum Inhibitory Concentration
How it was run: as §1

Enterobacter cloacae 963 = assay: Antibacterial activity, agar-dilution MIC, organism No. 24; details: Enterobacter cloacae, 963; Organism No. 24, bouillon-agar; read-out: Minimum Inhibitory Concentration
How it was run: as §1

[21] = system: Micrococcus luteus ATCC 9341; assay: Antibacterial activity, agar-dilution MIC, organism No. 25; details: Micrococcus luteus, ATCC9341; Organism No. 25, bouillon-agar; read-out: Minimum Inhibitory Concentration
How it was run: as §1

[22] = system: Streptococcus pyogenes IFO 3340; assay: Antibacterial activity, agar-dilution MIC, organism No. 26; details: Streptococcus pyogenes, IFO3340; Organism No. 26, bouillon-agar; read-out: Minimum Inhibitory Concentration
How it was run: as §1

[23] = system: Streptococcus faecium IFO 3826; assay: Antibacterial activity, agar-dilution MIC, organism No. 27; details: Enterococcus faecium, IFO3826; Organism No. 27, bouillon-agar; read-out: Minimum Inhibitory Concentration
How it was run: as §1

[24] = system: Mycoplasma pneumoniae IID817; assay: Antimycoplasmal activity, MIC by phenol red colour change, organism No. 28; details: Mycoplasma, IID817; Organism No. 28, PPLO broth + 1% glucose, 37° C.; read-out: Minimum Inhibitory Concentration (MIC)
Method: Mycoplasma pneumoniae IID817 was used as the test microorganism in a culture medium prepared by adding 1% of glucose to "PPLO broth (manufactured by Difco Co.) liquid culture medium" at 37° C. with phenol red as an indicator, thereby culturing the test microorganism.

[25] = system: Candida albicans IAM 4905; assay: Antifungal activity, agar-dilution MIC, organism No. 29; details: Candida albicans, IAM4905; Organism No. 29, bouillon-agar; read-out: Minimum Inhibitory Concentration
How it was run: as §1

[26] = system: Aspergillus niger IFO 6342; assay: Antifungal activity, agar-dilution MIC, organism No. 30; details: Aspergillus niger, IFO6342; Organism No. 30, bouillon-agar; read-out: Minimum Inhibitory Concentration
How it was run: as §1

| Structure (SMILES) | MIC [1] [µg/mL] | MIC [2] [µg/mL] | MIC [3] [µg/mL] | MIC [4] [µg/mL] | MIC [5] [µg/mL] | MIC [6] [µg/mL] | MIC [7] [µg/mL] | MIC [8] [µg/mL] | MIC (Salmonella typhi 901) [µg/mL] | MIC [9] [µg/mL] | MIC [10] [µg/mL] | MIC [11] [µg/mL] | MIC [12] [µg/mL] | MIC [13] [µg/mL] | MIC [14] [µg/mL] | MIC [15] [µg/mL] | MIC [16] [µg/mL] | MIC [17] [µg/mL] | MIC [18] [µg/mL] | MIC (Proteus vulgaris OX-19) [µg/mL] | also measured |
| --- | --- | --- | --- | --- | --- | --- | --- | --- | --- | --- | --- | --- | --- | --- | --- | --- | --- | --- | --- | --- | --- |
| [C-]#[N+]C12CC3(/C=C/C(=O)Nc4cc(C(=O)OC)ccc4OC)OC3C1O2 (stereo not drawn) [compound 77] | > 200 | > 200 | > 200 | > 200 | > 200 | > 200 | 100 (≈ 281 µM) | > 200 | > 200 | > 200 | > 200 | > 200 | > 200 | 100 (≈ 281 µM) | > 200 | > 200 | > 200 | 200 (≈ 561 µM) | > 200 | > 200 | MIC (Proteus vulgaris HX-19): 100 µg/mL (≈ 281 µM); MIC [19]: 200 µg/mL (≈ 561 µM); MIC [20]: > 200 µg/mL; MIC (Enterobacter cloacae 963): > 200 µg/mL; MIC [21]: 50 µg/mL (≈ 140 µM); MIC [22]: 6.25 µg/mL (≈ 17.5 µM); MIC [23]: > 200 µg/mL; MIC [24]: 3.13 µg/mL; MIC [25]: > 200 µg/mL; MIC [26]: 200 µg/mL (≈ 561 µM) |
| [C-]#[N+]C12CC3(/C=C/C(=O)Nc4cccc(C(=O)OC)c4)OC3C1O2 (stereo not drawn) [compound 50] | 0.2 (≈ 0.613 µM) | 1.56 (≈ 4.78 µM) | 0.39 (≈ 1.2 µM) | 200 (≈ 613 µM) | > 200 | > 200 | 0.39 (≈ 1.2 µM) | 50 (≈ 153 µM) | 25 (≈ 76.6 µM) | 6.25 (≈ 19.2 µM) | 1.56 (≈ 4.78 µM) | 6.25 (≈ 19.2 µM) | > 200 | 6.25 (≈ 19.2 µM) | > 200 | > 200 | > 200 | 1.56 (≈ 4.78 µM) | > 200 | 1.56 (≈ 4.78 µM) | MIC (Proteus vulgaris HX-19): 0.1 µg/mL (≈ 0.306 µM); MIC [19]: 6.25 µg/mL (≈ 19.2 µM); MIC [20]: > 200 µg/mL; MIC (Enterobacter cloacae 963): 200 µg/mL (≈ 613 µM); MIC [21]: < 0.05 µg/mL; MIC [22]: 1.56 µg/mL (≈ 4.78 µM); MIC [23]: 12.5 µg/mL (≈ 38.3 µM); MIC [24]: < 0.2 µg/mL; MIC [25]: 0.79 µg/mL (≈ 2.42 µM); MIC [26]: 1.56 µg/mL (≈ 4.78 µM) |
| [C-]#[N+]C12CC3(/C=C/C(=O)Nc4cccc(OC)c4)OC3C1O2 (stereo not drawn) [compound 54] | 0.39 (≈ 1.31 µM) | 1.56 (≈ 5.23 µM) | 0.2 (≈ 0.67 µM) | 25 (≈ 83.8 µM) | 50 (≈ 168 µM) | 50 (≈ 168 µM) | 0.2 (≈ 0.67 µM) | 6.25 (≈ 21 µM) | 3.13 (≈ 10.5 µM) | 0.78 (≈ 2.61 µM) | 0.39 (≈ 1.31 µM) | 3.13 (≈ 10.5 µM) | 100 (≈ 335 µM) | 3.13 (≈ 10.5 µM) | > 200 | > 200 | > 200 | 0.39 (≈ 1.31 µM) | > 200 | 0.39 (≈ 1.31 µM) | MIC (Proteus vulgaris HX-19): 0.3 µg/mL (≈ 1.01 µM); MIC [19]: 6.25 µg/mL (≈ 21 µM); MIC [20]: > 200 µg/mL; MIC (Enterobacter cloacae 963): > 200 µg/mL; MIC [21]: 0.05 µg/mL (≈ 0.168 µM); MIC [22]: 0.39 µg/mL (≈ 1.31 µM); MIC [23]: 25 µg/mL (≈ 83.8 µM); MIC [24]: < 0.2 µg/mL; MIC [25]: 0.79 µg/mL (≈ 2.65 µM); MIC [26]: 1.56 µg/mL (≈ 5.23 µM) |
| [C-]#[N+]C12CC3(/C=C/C(=O)OCc4ccccc4[N+](=O)[O-])OC3C1O2 (stereo not drawn) [compound 13] | 0.39 (≈ 1.19 µM) | 0.39 (≈ 1.19 µM) | 0.39 (≈ 1.19 µM) | 100 (≈ 305 µM) | 100 (≈ 305 µM) | 100 (≈ 305 µM) | 25 (≈ 76.2 µM) | 200 (≈ 609 µM) | 50 (≈ 152 µM) | 25 (≈ 76.2 µM) | 12.5 (≈ 38.1 µM) | 200 (≈ 609 µM) | 100 (≈ 305 µM) | 25 (≈ 76.2 µM) | > 200 | > 200 | > 200 | 12.5 (≈ 38.1 µM) | > 200 | 25 (≈ 76.2 µM) | MIC (Proteus vulgaris HX-19): 0.1 µg/mL (≈ 0.305 µM); MIC [19]: 100 µg/mL (≈ 305 µM); MIC [20]: > 200 µg/mL; MIC (Enterobacter cloacae 963): > 200 µg/mL; MIC [21]: < 0.1 µg/mL; MIC [22]: 100 µg/mL (≈ 305 µM); MIC [23]: 0.78 µg/mL (≈ 2.38 µM); MIC [24]: 0.2 µg/mL; MIC [25]: 0.8 µg/mL (≈ 2.44 µM); MIC [26]: 6.25 µg/mL (≈ 19 µM) |
